According to ChEMBL document CHEMBL1201862, “PubChem BioAssay data set” (2004):
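Interpolation was linear, between the two tested concentrations surrounding the appropriate level; five concentrations were tested over 48 hours in 96-well plates. GI50: concentration for 50% inhibition of growth.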 Calls of active or inactive are those of the source. Cut-off read from the data, not from the text of the source: active = GI50 up to about 1.1 µM and inactive = higher.

Tests used:
Assay in all cases: inhibition of tumour cell growth, NCI panel, 48 h
[1] = tested on: 786-0
[2] = tested on: EKVX
[3] = tested on: HCT-116
[4] = tested on: HOP-62
[5] = tested on: HT-29
[6] = tested on: IGROV-1
[7] = tested on: NCI-H23
[8] = tested on: NCI-H460
[9] = tested on: NCI-H522
[10] = tested on: OVCAR-3
[11] = tested on: SF-268
[12] = tested on: SK-MEL-2
[13] = tested on: UACC-257
[14] = tested on: UACC-62
[15] = tested on: UO-31
[16] = tested on: K562
[17] = tested on: SR

Measured: GI50

OC(CCNC12CC3CC(CC(C3)C1)C2)c1ccccc1 (stereo not given)
inactive: [1] > 100 µM | [2] > 100 µM | [3] 80.7 µM | [4] > 100 µM | [5] 35.3 µM | [6] 72.1 µM | [7] > 100 µM | [8] > 100 µM | [9] > 100 µM | [10] > 100 µM | [11] > 100 µM | [12] > 100 µM | [13] > 100 µM | [14] > 100 µM | [15] 43.9 µM

O=C(/C=C\c1ccc(/C=C/C(=O)Nc2cccc(C3=NCCCN3)c2)cc1)Nc1cccc(C2=NCCCN2)c1
inactive: [3] > 100 µM | [4] 65.8 µM | [5] > 100 µM | [6] > 100 µM | [16] > 100 µM | [7] > 100 µM | [8] > 100 µM | [9] 42.8 µM | [10] > 100 µM | [12] > 62.8 µM | [13] > 100 µM | [15] > 100 µM

Cc1ccc(NC(=O)CCC(=O)C(C#N)c2ccccc2)cc1C (stereo not given)
inactive: [1] > 100 µM | [2] > 100 µM | [3] > 100 µM | [5] > 100 µM | [6] > 100 µM | [16] > 100 µM | [7] > 100 µM | [8] > 100 µM | [9] > 100 µM | [10] > 100 µM | [11] > 100 µM | [12] > 100 µM | [13] > 100 µM | [14] > 100 µM | [15] > 100 µM

COc1cccc(NC(=O)/C(CS(=O)(=O)CCC(C(C)=O)C(C)=O)=N/NC(C)(C)C)c1
inactive: [1] > 100 µM | [2] > 100 µM | [3] > 100 µM | [4] > 100 µM | [5] > 100 µM | [6] > 100 µM | [16] > 100 µM | [7] > 100 µM | [8] > 100 µM | [9] > 100 µM | [10] > 100 µM | [11] > 100 µM | [12] > 100 µM | [13] > 100 µM | [14] > 100 µM | [15] > 100 µM

O=C(N/C(=C\c1ccc([N+](=O)[O-])cc1)c1nc2ccccc2[nH]1)c1ccccc1
inactive: [1] > 100 µM | [2] > 100 µM | [3] 72.4 µM | [4] > 100 µM | [5] 95.7 µM | [6] > 100 µM | [16] > 100 µM | [7] > 100 µM | [8] > 100 µM | [9] 64.7 µM | [11] > 100 µM | [12] > 100 µM | [13] > 100 µM | [14] > 100 µM | [15] 21.9 µM

C#CC1(O)CC(c2ccccc2)N(C)C(c2ccccc2)C1 (stereo not given)
inactive: [1] > 100 µM | [2] > 100 µM | [3] 18.4 µM | [4] > 100 µM | [5] > 100 µM | [6] > 100 µM | [16] 78.9 µM | [7] > 100 µM | [8] > 100 µM | [9] > 100 µM | [10] > 100 µM | [11] > 100 µM | [12] > 100 µM | [13] > 100 µM | [14] > 100 µM | [15] 67.1 µM

O=C1CC2CCCCC2=C1O (stereo not given)
inactive: [1] > 100 µM | [2] > 100 µM | [3] > 100 µM | [4] > 100 µM | [6] > 100 µM | [16] > 100 µM | [7] > 100 µM | [8] > 100 µM | [9] > 100 µM | [10] > 100 µM | [11] > 100 µM | [12] > 100 µM | [13] > 100 µM | [14] > 100 µM | [15] > 100 µM

NC(=S)Nc1nnc(-c2ccc(-c3nnc(NC(N)=S)o3)cc2)o1
inactive: [1] > 100 µM | [2] > 100 µM | [3] > 100 µM | [4] > 100 µM | [5] > 100 µM | [6] > 100 µM | [16] > 100 µM | [7] > 100 µM | [8] > 100 µM | [9] > 100 µM | [10] > 100 µM | [11] > 100 µM | [12] > 100 µM | [13] > 100 µM | [14] > 100 µM | [15] > 100 µM

O=[N+]([O-])c1ccccc1S(=O)(=O)c1ccccc1
inactive: [2] > 100 µM | [3] > 100 µM | [4] > 100 µM | [5] > 100 µM | [6] > 100 µM | [16] > 100 µM | [7] 89.7 µM | [8] > 100 µM | [10] > 100 µM | [11] > 100 µM | [12] > 100 µM | [17] > 100 µM | [13] > 100 µM | [14] 54.7 µM | [15] 28.2 µM

COC(=O)CCC1(NS(=O)(=O)c2ccc(C)cc2)CCC(C(C)(C)C)CC1 (stereo not given)
inactive: [1] 14.4 µM | [2] > 10 µM | [3] 7.74 µM | [4] 17.3 µM | [5] 13.8 µM | [6] 14.6 µM | [16] 4.91 µM | [7] 9.71 µM | [8] 31.2 µM | [9] 5.16 µM | [10] 10.3 µM | [11] > 10 µM | [12] 17.3 µM | [13] 6.95 µM | [14] 11.9 µM | [15] 3.3 µM

COC(=O)C1[C@H](c2ccc3c(c2)OCO3)OC(=O)[C@]1(C(=O)OC)C(=O)c1ccc(OC)c(OC)c1 (stereo not given in full)
inactive: [1] > 100 µM | [2] > 100 µM | [4] > 100 µM | [5] 28.1 µM | [6] 42.3 µM | [16] 36 µM | [7] 29.3 µM | [8] 38.7 µM | [10] 75.5 µM | [12] 23.4 µM | [17] 34.2 µM | [13] 40.2 µM | [14] 59.7 µM | [15] 87.3 µM

OC(c1ccccc1)C1CC2C=CC1C2 (stereo not given)
inactive: [2] > 100 µM | [3] > 100 µM | [4] > 100 µM | [5] > 100 µM | [6] > 100 µM | [16] > 100 µM | [7] > 100 µM | [8] > 100 µM | [9] > 100 µM | [10] > 100 µM | [11] > 100 µM | [12] > 100 µM | [13] > 100 µM | [14] > 100 µM | [15] > 100 µM

C/C=C/CC(C)[C@@H](O)[C@H](NC)C(=O)O (stereo not given in full)
inactive: [1] > 100 µM | [2] > 100 µM | [4] > 100 µM | [5] > 100 µM | [6] > 100 µM | [16] > 100 µM | [7] > 100 µM | [8] > 100 µM | [9] > 100 µM | [10] > 100 µM | [11] > 100 µM | [12] > 100 µM | [13] > 100 µM | [14] > 100 µM | [15] > 100 µM
